Source: ChEMBL document CHEMBL2203026
pEC50, pIC50: −log10 of the molar value. One block for each compound: values may come before it.

What was measured:
[1] = target: T1, Metabotropic glutamate receptor 2 (Homo sapiens, UniProt Q14416); test: Negative allosteric modulation of mGlu2 by cell-based assay
[2] = target: T2, Metabotropic glutamate receptor 3 (Homo sapiens, UniProt Q14832); test: Negative allosteric modulation of mGlu3 assessed as inhibition of glutamate-induced thallium flux through GIRK channels by cell-based assay; parameters: concentration or dose not given beside the values; settings: concentration not given here
Target sequence in this assay (Q14832 23-879 limits assumed): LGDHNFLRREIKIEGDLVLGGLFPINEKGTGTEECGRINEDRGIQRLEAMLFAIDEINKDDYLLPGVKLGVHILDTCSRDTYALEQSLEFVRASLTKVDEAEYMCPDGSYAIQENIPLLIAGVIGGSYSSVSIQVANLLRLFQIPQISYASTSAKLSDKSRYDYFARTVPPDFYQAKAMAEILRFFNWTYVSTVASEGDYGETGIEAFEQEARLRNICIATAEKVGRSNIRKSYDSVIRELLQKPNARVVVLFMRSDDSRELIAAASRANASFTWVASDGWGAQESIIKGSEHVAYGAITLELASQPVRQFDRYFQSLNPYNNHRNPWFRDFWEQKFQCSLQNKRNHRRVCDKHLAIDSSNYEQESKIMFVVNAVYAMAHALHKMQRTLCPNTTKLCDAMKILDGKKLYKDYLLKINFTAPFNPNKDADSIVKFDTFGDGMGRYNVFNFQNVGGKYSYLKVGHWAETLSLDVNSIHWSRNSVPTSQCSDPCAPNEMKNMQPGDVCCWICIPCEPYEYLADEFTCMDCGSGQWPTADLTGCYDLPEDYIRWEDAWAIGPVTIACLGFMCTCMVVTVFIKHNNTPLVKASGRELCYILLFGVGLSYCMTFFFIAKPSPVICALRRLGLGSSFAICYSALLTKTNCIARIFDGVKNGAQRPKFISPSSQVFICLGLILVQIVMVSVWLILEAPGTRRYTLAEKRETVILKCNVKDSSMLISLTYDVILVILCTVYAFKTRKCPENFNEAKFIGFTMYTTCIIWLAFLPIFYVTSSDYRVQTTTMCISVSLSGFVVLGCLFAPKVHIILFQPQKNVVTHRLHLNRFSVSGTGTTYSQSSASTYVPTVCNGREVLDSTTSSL

[3] = target: T2, Metabotropic glutamate receptor 3; test: Negative allosteric modulation of mGlu3 assessed as thallium flux through GIRK channels by cell-based assay; settings: for pIC50: read-out: IC50
Target sequence in this assay (Q14832 whole entry): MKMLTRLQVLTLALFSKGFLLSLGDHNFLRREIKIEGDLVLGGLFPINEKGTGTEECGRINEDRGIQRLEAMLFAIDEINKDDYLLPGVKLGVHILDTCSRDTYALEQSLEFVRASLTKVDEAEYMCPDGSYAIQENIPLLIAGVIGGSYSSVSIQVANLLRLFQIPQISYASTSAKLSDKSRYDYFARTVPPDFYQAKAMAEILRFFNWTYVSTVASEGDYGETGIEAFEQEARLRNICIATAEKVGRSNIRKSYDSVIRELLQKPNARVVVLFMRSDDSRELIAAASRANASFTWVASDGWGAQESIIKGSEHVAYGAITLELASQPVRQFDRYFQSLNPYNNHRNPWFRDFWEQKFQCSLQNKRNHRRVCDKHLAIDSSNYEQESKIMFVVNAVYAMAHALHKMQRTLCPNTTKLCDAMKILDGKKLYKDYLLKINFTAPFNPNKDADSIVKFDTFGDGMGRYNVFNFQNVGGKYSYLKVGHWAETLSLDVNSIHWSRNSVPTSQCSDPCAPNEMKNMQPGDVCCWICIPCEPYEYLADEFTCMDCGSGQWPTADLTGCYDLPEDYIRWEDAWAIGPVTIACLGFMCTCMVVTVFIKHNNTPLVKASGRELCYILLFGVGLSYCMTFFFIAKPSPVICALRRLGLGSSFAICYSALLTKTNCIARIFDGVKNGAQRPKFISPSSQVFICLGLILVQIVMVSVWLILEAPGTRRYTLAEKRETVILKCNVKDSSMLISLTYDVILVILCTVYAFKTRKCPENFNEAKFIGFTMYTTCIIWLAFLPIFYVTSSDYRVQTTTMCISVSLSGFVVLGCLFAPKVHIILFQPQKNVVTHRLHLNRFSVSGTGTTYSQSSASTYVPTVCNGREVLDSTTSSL

[4] = target: T2, Metabotropic glutamate receptor 3; test: Negative allosteric modulation of human mGlu3 expressed in AV-12 cells in presence of glutamate EC90 concentration by FLIPR assay; type: cell-based, AV12
Target sequence in this assay (Q14832 whole entry): as above

[5] = target: T1, Metabotropic glutamate receptor 2; test: Negative allosteric modulation of mGlu2 assessed as thallium flux through GIRK channels by cell-based assay
[6] = Selectivity index, ratio IC50 for mGlu2 to IC50 for mGlu3
[7] = target: T1, Metabotropic glutamate receptor 2; test: Negative allosteric modulation of human mGlu2 expressed in AV-12 cells in presence of glutamate EC90 concentration by FLIPR assay; type: cell-based, AV12
[8] = target: T3, Metabotropic glutamate receptor 5 (Rattus norvegicus, UniProt P31424); test: Positive allosteric modulation of rat mGlu5 expressed in HEK293 cells in presence of glutamate EC20 concentration by Fluo-2AM dye based fluorescence analysis; type: cell-based
Target sequence in this assay (P31424 whole entry): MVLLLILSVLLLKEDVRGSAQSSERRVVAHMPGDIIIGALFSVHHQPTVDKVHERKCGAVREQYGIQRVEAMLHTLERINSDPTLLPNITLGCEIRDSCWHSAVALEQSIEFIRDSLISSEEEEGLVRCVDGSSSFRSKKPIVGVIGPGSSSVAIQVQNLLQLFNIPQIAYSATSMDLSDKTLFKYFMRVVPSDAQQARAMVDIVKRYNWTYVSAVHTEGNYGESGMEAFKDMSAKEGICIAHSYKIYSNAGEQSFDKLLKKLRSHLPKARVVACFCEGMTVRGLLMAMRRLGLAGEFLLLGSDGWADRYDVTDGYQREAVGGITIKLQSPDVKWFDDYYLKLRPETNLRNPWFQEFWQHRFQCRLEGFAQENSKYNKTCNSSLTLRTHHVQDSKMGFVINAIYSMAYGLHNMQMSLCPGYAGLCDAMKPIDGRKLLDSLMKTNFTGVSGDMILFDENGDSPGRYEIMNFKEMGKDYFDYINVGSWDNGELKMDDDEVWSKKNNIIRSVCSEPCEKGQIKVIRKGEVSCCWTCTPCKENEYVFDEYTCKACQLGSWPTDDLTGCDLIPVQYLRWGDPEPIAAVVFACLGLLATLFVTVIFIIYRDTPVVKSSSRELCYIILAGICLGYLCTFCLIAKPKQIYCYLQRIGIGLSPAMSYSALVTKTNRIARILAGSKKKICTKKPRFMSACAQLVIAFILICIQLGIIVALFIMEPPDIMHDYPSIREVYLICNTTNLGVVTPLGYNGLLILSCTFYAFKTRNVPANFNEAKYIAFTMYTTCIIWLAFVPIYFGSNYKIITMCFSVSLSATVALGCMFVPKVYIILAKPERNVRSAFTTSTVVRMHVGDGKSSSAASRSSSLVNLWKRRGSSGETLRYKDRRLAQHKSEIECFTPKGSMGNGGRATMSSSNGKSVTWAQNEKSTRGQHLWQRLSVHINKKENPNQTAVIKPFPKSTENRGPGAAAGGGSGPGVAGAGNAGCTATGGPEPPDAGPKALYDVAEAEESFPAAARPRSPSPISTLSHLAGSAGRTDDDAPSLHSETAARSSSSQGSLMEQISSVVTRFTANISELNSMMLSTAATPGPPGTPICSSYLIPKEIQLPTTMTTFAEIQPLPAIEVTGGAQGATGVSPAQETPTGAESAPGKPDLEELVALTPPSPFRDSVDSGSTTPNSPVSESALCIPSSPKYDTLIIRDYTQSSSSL

[9] = target: Metabotropic glutamate receptor 3 (Rattus norvegicus, UniProt P31422); test: Negative allosteric modulation of rat mGlu3 assessed as assessed as thallium flux through GIRK channels by cell-based assay
Metabotropic glutamate receptor 3 (Rattus norvegicus, UniProt P31422), sequence (P31422 whole entry): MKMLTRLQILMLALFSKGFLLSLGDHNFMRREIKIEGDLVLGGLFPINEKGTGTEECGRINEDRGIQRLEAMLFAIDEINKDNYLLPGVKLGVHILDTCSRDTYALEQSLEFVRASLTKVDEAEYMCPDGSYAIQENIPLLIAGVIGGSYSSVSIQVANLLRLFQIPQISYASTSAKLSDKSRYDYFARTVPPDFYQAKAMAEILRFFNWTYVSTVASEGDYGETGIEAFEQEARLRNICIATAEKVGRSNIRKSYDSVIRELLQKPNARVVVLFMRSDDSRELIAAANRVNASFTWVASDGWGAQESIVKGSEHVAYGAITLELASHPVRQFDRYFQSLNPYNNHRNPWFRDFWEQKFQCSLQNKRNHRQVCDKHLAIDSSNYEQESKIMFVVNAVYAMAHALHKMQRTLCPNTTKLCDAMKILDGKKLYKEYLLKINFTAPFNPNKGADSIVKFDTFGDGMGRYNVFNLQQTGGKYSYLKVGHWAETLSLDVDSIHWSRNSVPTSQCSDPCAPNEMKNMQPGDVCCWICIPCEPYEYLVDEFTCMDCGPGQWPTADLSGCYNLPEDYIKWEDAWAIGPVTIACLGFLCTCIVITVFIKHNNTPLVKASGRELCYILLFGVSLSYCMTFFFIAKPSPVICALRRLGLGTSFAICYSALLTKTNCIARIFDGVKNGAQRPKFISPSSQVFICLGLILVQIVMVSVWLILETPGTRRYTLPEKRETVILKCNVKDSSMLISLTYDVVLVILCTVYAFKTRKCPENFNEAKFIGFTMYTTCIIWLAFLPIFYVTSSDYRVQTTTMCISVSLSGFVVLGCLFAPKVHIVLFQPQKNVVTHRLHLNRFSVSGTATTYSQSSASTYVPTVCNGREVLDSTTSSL

Brain = test: Drug level in rat brain at 10 mg/kg; type: ADME, organism-based; parameters: dose 10 mg/kg; settings: in vivo, read-out: Drug uptake
Cytochrome P450 2C9 = Cytochrome P450 2C9 (Homo sapiens, UniProt P11712); test: Inhibition of CYP2C9 in human liver microsomes; type: ADME, Microsome
Nucleic Acid = test: Ratio of drug level in brain to plasma of rat at 10 mg/kg; type: ADME, organism-based; parameters: dose 10 mg/kg
Cytochrome P450 2D6 = Cytochrome P450 2D6 (Homo sapiens, UniProt P10635); test: Inhibition of CYP2D6 in human liver microsomes; type: ADME, Microsome
[10] = Fraction unbound in rat plasma; type: ADME, cell-free
[11] = target: T2, Metabotropic glutamate receptor 3; test: Negative allosteric modulation of mGlu3 assessed as inhibition of glutamate-induced calcium mobilization in presence of Galpha15 by cell based assay; type: functional
Target sequence in this assay (Q14832 whole entry): as the sequence (Q14832 whole entry) above

[12] = Volume of distribution at steady-state concentration in rat at 1 mg/kg, iv; type: ADME, organism-based; parameters: dose 1 mg/kg, route intravenous; settings: in vivo, read-out: Vdss
Plasma = test: Plasma concentration in rat at 10 mg/kg; type: ADME, organism-based; parameters: dose 10 mg/kg; settings: in vivo
[13] = Drug metabolism in rat liver microsome assessed as CYP450-mediated (R)-(3-(hydroxymethyl)piperidin-1-yl)(4-((4-hydroxyphenyl)ethynyl)phenyl)methanone formation; type: ADME; settings: microsomes
Cytochrome P450 1A2 = target: T4, Cytochrome P450 1A2 (Homo sapiens, UniProt P05177); test: Inhibition of CYP1A2 in human liver microsomes; type: ADME, Microsome
T4 sequence (P05177 whole entry): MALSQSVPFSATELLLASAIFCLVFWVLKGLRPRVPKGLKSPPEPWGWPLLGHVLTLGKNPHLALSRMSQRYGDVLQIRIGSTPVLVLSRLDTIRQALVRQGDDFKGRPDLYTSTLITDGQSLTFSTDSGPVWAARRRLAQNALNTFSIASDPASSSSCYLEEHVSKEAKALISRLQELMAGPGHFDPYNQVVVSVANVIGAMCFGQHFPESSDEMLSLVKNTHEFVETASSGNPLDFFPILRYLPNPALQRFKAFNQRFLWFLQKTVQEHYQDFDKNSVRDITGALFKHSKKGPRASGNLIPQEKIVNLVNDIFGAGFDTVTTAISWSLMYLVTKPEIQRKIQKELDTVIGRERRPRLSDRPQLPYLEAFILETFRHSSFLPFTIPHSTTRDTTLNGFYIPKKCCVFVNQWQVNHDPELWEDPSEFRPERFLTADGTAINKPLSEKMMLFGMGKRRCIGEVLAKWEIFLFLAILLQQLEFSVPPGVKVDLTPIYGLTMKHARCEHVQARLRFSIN

[14] = Fraction unbound in human plasma; type: ADME, cell-free
[15] = Clearance in rat at 1 mg/kg, iv; type: ADME, organism-based; parameters: dose 1 mg/kg, route intravenous; settings: in vivo
[16] = target: T3, Metabotropic glutamate receptor 5; test: Negative allosteric modulation of mGlu5 assessed as inhibition of glutamate-induced calcium mobilization by cell based assay; type: functional
Target sequence in this assay (P31424 whole entry, looked up): as the sequence (P31424 whole entry) above

[17] = Drug metabolism in human liver microsome assessed as CYP450-mediated (R)-(3-(hydroxymethyl)piperidin-1-yl)(4-((4-hydroxyphenyl)ethynyl)phenyl)methanone formation; type: ADME; settings: microsomes
[18] = target: T3, Metabotropic glutamate receptor 5; test: Positive allosteric modulation of mGlu5 assessed as potentiation of glutamate-induced calcium mobilization by cell based assay; type: functional
Target sequence in this assay (P31424 whole entry, looked up): as the sequence (P31424 whole entry) above

[19] = Half life in rat at 1 mg/kg, iv; type: ADME, organism-based; parameters: dose 1 mg/kg, route intravenous; settings: in vivo
Cytochrome P450 3A4 = Cytochrome P450 3A4 (Homo sapiens, UniProt P08684); test: Inhibition of CYP3A4 in human liver microsomes; type: ADME, Microsome
[20] = target: T2, Metabotropic glutamate receptor 3; test: Negative allosteric modulation of mGlu3 by cell-based assay
Target sequence in this assay (Q14832 whole entry): as the sequence (Q14832 whole entry) above

T1 sequence (Q14416 whole entry): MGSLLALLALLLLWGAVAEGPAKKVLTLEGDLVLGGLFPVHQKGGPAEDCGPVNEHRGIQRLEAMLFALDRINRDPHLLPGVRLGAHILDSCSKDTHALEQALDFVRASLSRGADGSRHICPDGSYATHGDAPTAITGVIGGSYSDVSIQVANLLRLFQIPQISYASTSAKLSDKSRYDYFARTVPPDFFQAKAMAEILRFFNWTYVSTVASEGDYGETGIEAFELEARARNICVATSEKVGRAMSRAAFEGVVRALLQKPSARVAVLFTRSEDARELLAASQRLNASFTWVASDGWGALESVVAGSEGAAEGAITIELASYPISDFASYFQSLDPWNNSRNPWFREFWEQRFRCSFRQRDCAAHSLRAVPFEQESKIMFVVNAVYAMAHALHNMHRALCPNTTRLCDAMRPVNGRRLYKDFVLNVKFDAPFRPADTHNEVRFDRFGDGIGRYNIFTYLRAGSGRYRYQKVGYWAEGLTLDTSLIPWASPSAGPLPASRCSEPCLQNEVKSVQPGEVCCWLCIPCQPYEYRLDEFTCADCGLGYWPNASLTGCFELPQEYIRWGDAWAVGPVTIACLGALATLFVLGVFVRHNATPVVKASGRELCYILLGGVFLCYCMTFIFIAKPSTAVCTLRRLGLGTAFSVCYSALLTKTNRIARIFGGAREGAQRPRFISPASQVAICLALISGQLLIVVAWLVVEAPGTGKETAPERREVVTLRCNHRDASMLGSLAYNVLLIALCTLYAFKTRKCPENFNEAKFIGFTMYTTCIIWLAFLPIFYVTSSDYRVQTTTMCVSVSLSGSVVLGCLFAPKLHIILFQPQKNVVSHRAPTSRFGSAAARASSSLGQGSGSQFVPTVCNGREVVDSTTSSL

SMILES: Clc1ccc(CN[C@H]2CCN(c3ncc(Br)cn3)C2)c(Cl)c1
- pIC50 [4]: 6.72
- pIC50 [5]: 4.77
- pIC50 [3]: 5.38
- Ratio IC50 [6]: 4
- pIC50 [7]: < 4.90

SMILES: COc1ccc(C#Cc2ccc(C(=O)N3CCC(O)CC3)cc2)cc1
- inhibition [2]: 10.4%
- pIC50 [3]: 5.42

SMILES: COc1ccc(C#Cc2ccc(C(=O)N3CCCC(O)C3)cc2)cc1 (centres undefined)
- inhibition [2]: -1.1%
- pIC50 [3]: 5.60

SMILES: COc1ccc(C#Cc2ccc(C(=O)N3CCC[C@@H](CO)C3)cc2)cc1
- concentration (Brain): 16.3 µM
- pIC50 (Cytochrome P450 2C9): < 4.52
- BPR (Nucleic Acid): 1.67
- pIC50 (Cytochrome P450 2D6): < 4.52
- fraction unbound [10]: 0.01
- pIC50 [1]: < 5.00
- pIC50 [11]: 6.18
- Vd [12]: 0.6 L/kg
- concentration (Plasma): 9.7 µM
- Drug metabolism [13]: Active
- inhibition [2]: -4.4%
- pIC50 (Cytochrome P450 1A2): < 4.52
- fraction unbound [14]: 0.02
- clearance [15]: 33 mL/min/kg
- pIC50 [16]: < 5.00
- Drug metabolism [17]: Active
- pIC50 [3]: 5.82
- pEC50 [18]: < 5.00
- Ratio IC50 [6]: 15
- half-life [19]: 16.8 min
- pIC50 (Cytochrome P450 3A4): < 4.52

SMILES: CCN1CCC[C@H]1CC(=O)c1ccc(C#Cc2ccc(OC)cc2)cc1
- inhibition [2]: 9.6%
- pIC50 [3]: < 5.00

Further lines, results first:

- pIC50 [1]: < 5.00
- inhibition [2]: -1.7%
- IC50 ([3]; read-out: pIC50 (converted)): 3.24 µM
SMILES: COc1ccc(C#Cc2ccc(C(=O)N3CCC[C@H](CO)C3)cc2)cc1

- inhibition [2]: 7.6%
- pIC50 [3]: < 5.00
SMILES: COc1ccc(C#Cc2ccc(C(=O)N3CCN(C(C)C)CC3)cc2)cc1

- inhibition [2]: 4.4%
- pIC50 [3]: 5.30
SMILES: COc1ccc(C#Cc2ccc(C(=O)N3CCC(C)(O)CC3)cc2)cc1

- pEC50 [8]: 6.57
- pIC50 [9]: < 5.00
SMILES: O=C(c1ccc(C#Cc2ccccc2)cc1)N1CCC(O)CC1

- inhibition [2]: 2.2%
- pIC50 [3]: 5.24
SMILES: COc1ccc(C#Cc2ccc(C(=O)N3CCC[C@H](C(=O)O)C3)cc2)cc1

- inhibition [2]: 16.4%
- pIC50 [3]: < 5.00
SMILES: COc1ccc(C#Cc2ccc(C(=O)N3CCC[C@@H](C(=O)O)C3)cc2)cc1

- inhibition [2]: 0.5%
- pIC50 [3]: 5.68
SMILES: COc1ccc(C#Cc2ccc(C(=O)N3CCCC(CO)C3)cc2)cc1 (racemic)

- pIC50 [1]: 6.53
- pIC50 [20]: 6.57
SMILES: Cc1cc(-c2cccc(C3=Nc4cc(C)c(C(F)(F)F)cc4NC(=O)C3)c2)cc(C)n1
